Calls of active or inactive are those of the source. No cut-off for these calls is given here.
Legend:
[1] = system: Naja kaouthia
Description: Protective activity against Naja kaouthia venom-induced mortality in Swiss albino mouse at 100 mmol, iv by measuring venom LD50 administered immediately after venom injection measured after 24 hrs (Rvb = 2.82 ug)

[2] = system: Daboia russelii; assay: (§1) Protective activity against Daboia russellii venom-induced hemorrhage in intradermally dosed Swiss albino mouse at 100 mmol assessed as hemorhagic lesion by measuring minimal […] dose preincubated with venom for 1 hr followed by administration to mouse measured after 24 hrs (reference value: 5 ug); format: functional
[3] = system: Naja kaouthia; remark: listed apart in the source
[4] = system: Daboia russelii; assay: (§2) Protective activity against Daboia russellii venom-induced hemorrhage in Swiss albino mouse at 100 mmol, iv assessed as hemorhagic lesion by measuring […] administered immediately after venom injection measured after 24 hrs (Rvb =5 ug); format: functional
[5] = Lipophilicity, log P of compound; format: physicochemical; conditions: octanol/water
[6] = system: Daboia russelii
[7] = system: Daboia russelii; assay: (§3) Protective activity against Daboia russellii venom-induced mortality in Swiss albino mouse at 100 mmol, iv by measuring venom LD50 administered immediately after venom injection measured after 24 hrs (reference value: 2.28ug); format: functional
[8] = Protective activity against Daboia russellii venom-induced hemorrhage in intradermally dosed Swiss albino mouse at 100 mmol assessed as hemorhagic lesion preincubated with venom for 1 hr followed by administration to mouse measured after 24 hrs relative to untreated control; format: functional, Daboia russelii
[9] = system: Daboia russelii; assay: Protective activity against Daboia russellii venom-induced mortality in iv dosed Swiss albino mouse administered immediately after venom injection relative to untreated control; format: functional, organism-based
[10] = Protective activity against Daboia russellii venom-induced mortality by measuring venom LD50 in Swiss albino mouse at 100 mmol, iv preincubated with venom for 1 hr followed by administration to mouse measured after 24 hrs (reference value: 2.28 ug); format: functional, Daboia russelii
[11] = as §1; format: functional, Daboia russelii
[12] = Protective activity against Daboia russellii venom-induced mortality in iv dosed Swiss albino mouse administered 60 mins after venom injection relative to untreated control; format: functional, Daboia russelii
[13] = target: T1, Basic phospholipase A2 VRV-PL-VIIIa (Daboia russelii) (UniProt P59071); assay: Inhibition of Daboia russellii venom PLA2 activity assessed as decrease in coagulation time of egg yolk at 20 mmol preincubated with venom for 1 hr followed by egg yolk addition measured after 1 hr
T1 sequence (whole entry): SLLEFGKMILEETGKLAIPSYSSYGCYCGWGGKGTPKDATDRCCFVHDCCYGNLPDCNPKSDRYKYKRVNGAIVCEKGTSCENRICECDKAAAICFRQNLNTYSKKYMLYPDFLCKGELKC

[14] = (§4) Protective activity against Daboia russellii venom-induced defibrinogenation in iv dosed Swiss albino mouse assessed as venom level causing blood coagulation at 100 mmol preincubated with venom for 1 hr followed by administration to mouse relative to untreated; format: functional, Daboia russelii
[15] = Protective activity against Daboia russellii venom-induced mortality in Swiss albino mouse at 100 mmol, iv administered immediately after venom injection measured after 24 hrs relative to untreated control; format: functional, Daboia russelii
[16] = as §2; format: functional, Daboia russelii
[17] = Protective activity against Naja kaouthia venom-induced mortality in Swiss albino mouse at 100 mmol, iv by measuring venom LD50 preincubated with venom for 1 hr followed by administration to mouse measured after 24 hrs (reference value: 2.82 ug); format: functional
[18] = Protective activity against Naja kaouthia venom-induced mortality in Swiss albino mouse at 100 mmol, iv administered immediately after venom injection measured after 24 hrs relative to untreated control; format: functional
[19] = (§5) Protective activity against Daboia russellii venom-induced defibrinogenation in iv dosed Swiss albino mouse assessed as blood coagulation at 100 mmol administered immediately after venom injection relative to untreated control; format: functional, Daboia russelii
[20] = Protective activity against Daboia russellii venom-induced hemorrhage in Swiss albino mouse at 100 mmol, iv assessed as hemorhagic lesion administered immediately after venom injection measured after 24 hrs relative to untreated control; format: functional, Daboia russelii
[21] = Protective activity against Naja kaouthia venom-induced mortality in Swiss albino mouse at 100 mmol, iv by measuring venom LD50 administered immediately after venom injection measured after 24 hrs (reference value: 2.82 ug); format: functional
[22] = system: Daboia russelii; assay: Protective activity against Daboia russellii venom-induced coagulation in goat plasma assessed as increase in plasma recalcification time at 20 mmol preincubated with venom for 1 hr followed by plasma addition; format: functional, cell-free
[23] = Protective activity against Daboia russellii venom-induced mortality in Swiss albino mouse at 100 mmol, iv preincubated with venom for 1 hr followed by administration to mouse measured after 24 hrs relative to untreated control; format: functional, Daboia russelii
[24] = Protective activity against Daboia russellii venom-induced mortality in iv dosed Swiss albino mouse administered 30 mins after venom injection relative to untreated control; format: functional, Daboia russelii
[25] = system: Naja kaouthia; assay: Protective activity against Naja kaouthia venom-induced mortality in iv dosed Swiss albino mouse assessed as administered 30 to 60 mins after venom injection; format: functional, organism-based
[26] = as §3; format: functional, Daboia russelii
[27] = Protective activity against Daboia russellii venom-induced defibrinogenation in iv dosed Swiss albino mouse assessed as venom level causing blood coagulation at 100 mmol preincubated with venom for 1 hr followed by administration to mouse (reference value: 2.5 ug); format: functional, Daboia russelii
[28] = Protective activity against Naja kaouthia venom-induced mortality in Swiss albino mouse at 100 mmol, iv preincubated with venom for 1 hr followed by administration to mouse measured after 24 hrs relative to untreated control; format: functional
[29] = Protective activity against Daboia russellii venom-induced defibrinogenation in iv dosed Swiss albino mouse assessed as venom level causing blood coagulation at 100 mmol administered immediately after venom injection (reference value: 2.5 ug); format: functional, Daboia russelii
[30] = system: Daboia russelii; assay: as §4; format: functional
[31] = system: Daboia russelii; assay: as §5; format: functional
[32] = system: Naja kaouthia; assay: Protective activity against Naja kaouthia venom-induced mortality in Swiss albino mouse at 12 mmol, iv by measuring venom LD50 administered immediately after venom injection measured after 24 hrs (reference value: 2.82 ug); format: functional, organism-based
[33] = Protective activity against Daboia russellii venom-induced hemorrhage in Swiss albino mouse at 12 mmol, iv assessed as hemorhagic lesion by measuring […] administered immediately after venom injection measured after 24 hrs (Rvb =5 ug); format: functional, Daboia russelii
[34] = Protective activity against Daboia russellii venom-induced mortality in Swiss albino mouse at 12 mmol, iv by measuring venom LD50 administered immediately after venom injection measured after 24 hrs (reference value: 2.28ug); format: functional, Daboia russelii
[35] = as §1, with “12” for “100”; format: functional, Daboia russelii
[36] = Protective activity against Daboia russellii venom-induced mortality by measuring venom LD50 in Swiss albino mouse at 12 mmol, iv preincubated with venom for 1 hr followed by administration to mouse measured after 24 hrs (reference value: 2.28 ug); format: functional, Daboia russelii
[37] = Protective activity against Naja kaouthia venom-induced mortality in Swiss albino mouse at 12 mmol, iv by measuring venom LD50 preincubated with venom for 1 hr followed by administration to mouse measured after 24 hrs (reference value: 2.82 ug); format: functional

| SMILES | logP ([5]; read-out: logP) | fold change (FC) [8] | Activity [9] | LD50 [10] | MHC [11] | fold change (FC) [14] | fold change (FC) [15] | MHC [16] | LD50 [17] | fold change (FC) [18] | fold change (FC) [19] | fold change (FC) [20] | LD50 [21] | Activity [22] | fold change (FC) [23] | Activity [25] | LD50 [26] | Activity [27] | fold change (FC) [28] | Activity [29] | other results |
| --- | --- | --- | --- | --- | --- | --- | --- | --- | --- | --- | --- | --- | --- | --- | --- | --- | --- | --- | --- | --- | --- |
| CC(=O)Oc1ccc(C=O)c(O)c1 | 0.94 |  |  |  |  |  |  |  |  |  |  |  |  |  |  |  |  |  |  |  | LD50 [1]: inactive; MHC [2]: inactive; LD50 [3]: inactive; MHC [4]: inactive; LD50 [6]: inactive; LD50 [7]: inactive |
| O=Cc1ccccc1 [BENZALDEHYDE] | 1.47 |  |  |  |  |  |  |  |  |  |  |  |  |  |  |  |  |  |  |  | LD50 [1]: inactive; MHC [2]: inactive; LD50 [3]: inactive; MHC [4]: inactive; LD50 [6]: inactive; LD50 [7]: inactive |
| COc1cccc(CO)c1O |  | 8 | Active | 25 µg | 40 µg | 10 | 3.75 | 10 µg | 9 µg | 2 | 1.5 | 2 | 10 µg | Active | 11.2 | inactive | 150 µg | 25 µg | 3.2 | 3.5 µg | Activity [12]: 10%; inhibition [13]: Active; Activity [24]: 40% |
| COc1ccc(CO)c(O)c1 |  | 6 | Active | 22 µg | 30 µg | 10 | 3.75 | 5 µg | 9 µg | 2 | 1.5 | 1 | 10 µg | Active | 9.8 | inactive | 150 µg | 25 µg | 3.2 | 3.5 µg | Activity [12]: 10%; Activity [24]: 40% |
| O=Cc1ccc(O)cc1O | 1.19 | 10 |  | 6 µg | 50 µg |  | 2.5 | 5 µg | 3 µg | 1.6 |  | 1 | 8 µg | Active | 2.6 | inactive | 100 µg | 2.5 µg | 1 | 2.5 µg | Activity [12]: 10%; fold change (FC) [30]: inactive; fold change (FC) [31]: inactive |
| OCc1cccc(O)c1O |  | 3 |  | 18 µg | 15 µg |  | 2.5 | 10 µg | 6 µg | 2 |  | 2 | 10 µg | Active | 8 | inactive | 100 µg | 2.5 µg | 2.1 | 2.5 µg | fold change (FC) [30]: inactive; fold change (FC) [31]: inactive |
| CCCCOc1ccc(C=O)c(O)c1 |  | 8 |  | 18 µg | 140 µg | 2.4 | 3.75 | 10 µg | 6 µg | 2 | 1.5 | 2 | 10 µg | Active | 8 | inactive | 150 µg | 6 µg | 2.1 | 3.5 µg |  |
| C=CCOc1ccc(C=O)c(O)c1 |  | 10 | Active | 22 µg | 50 µg | 2 | 3.75 | 10 µg | 9 µg | 2 | 1.5 | 2 | 10 µg | Active | 9.8 | inactive | 150 µg | 5 µg | 3.2 | 3.5 µg | Activity [24]: 40% |
| COc1cccc(C=O)c1O |  | 10 | Active | 25 µg | 50 µg | 10 | 3.75 | 10 µg | 9 µg | 2 | 1.5 | 2 | 10 µg | Active | 11.2 | inactive | 150 µg | 25 µg | 3.2 | 3.5 µg | Activity [12]: 10%; logP [5]: 2.39; Activity [24]: 40% |
| CC(=O)Oc1ccccc1C(=O)O [ASPIRIN] | 1.24 |  |  |  |  |  |  |  |  |  |  |  |  |  |  |  |  |  |  |  | LD50 [32]: inactive; MHC [33]: 10 µg; LD50 [34]: 50 µg; MHC [35]: 100 µg; LD50 [36]: 6.6 µg; LD50 [37]: 3 µg |
| COc1ccc(C=O)c(O)c1 | 3.19 | 10 | Active | 22 µg | 50 µg | 8.8 | 3.75 | 10 µg | 9 µg | 2 | 1.5 | 2 | 10 µg | Active | 9.8 | inactive | 150 µg | 22 µg | 3.2 | 3.5 µg | Activity [12]: 10%; Activity [24]: 40% |
| O=Cc1ccccc1O |  |  |  |  |  |  |  | 10 µg |  |  |  |  |  |  |  |  |  |  |  |  | MHC [2]: inactive |
| O=[N+]([O-])c1ccc2c(c1)OCO2 | 1.47 |  |  |  |  |  |  |  |  |  |  |  |  |  |  |  |  |  |  |  | LD50 [1]: inactive; MHC [2]: inactive; LD50 [3]: inactive; MHC [4]: inactive; LD50 [6]: inactive; LD50 [7]: inactive |

— ChEMBL document CHEMBL3785074, “Molecular modeling and snake venom phospholipase A2 inhibition by phenolic compounds: Structure-activity relationship” (Eur J Med Chem, 2016)
